Patent US10738056B2 (Aduro BioTech, Inc., priority 2017, dated 2020)

Assays:
[1] = target: Human cGAS amino acids 155-522 (Homo sapiens (Human), UniProt Q8N884); assay: cGAS biochemical activity assay (ATP remaining, Kinase-Glo Max luminescence); settings: human cGAS 155-522, ATP remaining (Kinase-Glo Max); read-out: cGAS IC50
[2] = tested on: cGAS/STING pathway in THP1 cells; assay: THP1 cell-based cGAS/STING pathway activity assay (IRF-3-linked luciferase reporter); settings: Homo sapiens, THP-1
In short: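 THP1 cells carrying an IRF-3-driven luciferase reporter were read across a range of compound concentrations, and IC50 values were derived from these concentration responses; the assay upper limit was 100 μM.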

Human cGAS amino acids 155-522, sequence (Q8N884 157-522): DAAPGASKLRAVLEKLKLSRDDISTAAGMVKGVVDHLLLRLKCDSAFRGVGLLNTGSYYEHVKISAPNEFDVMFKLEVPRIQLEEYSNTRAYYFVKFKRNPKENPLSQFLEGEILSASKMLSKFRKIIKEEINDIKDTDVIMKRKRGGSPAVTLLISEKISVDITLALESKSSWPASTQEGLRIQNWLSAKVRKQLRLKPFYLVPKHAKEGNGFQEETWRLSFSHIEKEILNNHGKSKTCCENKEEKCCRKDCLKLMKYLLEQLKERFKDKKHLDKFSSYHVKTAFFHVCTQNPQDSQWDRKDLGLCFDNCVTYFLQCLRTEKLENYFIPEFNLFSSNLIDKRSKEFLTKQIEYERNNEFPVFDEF

| SMILES | IC50 [1] [µM] | IC50 [2] [µM] |
| --- | --- | --- |
| COc1nn2c(=O)c(-c3nc4c(OC)cccc4o3)c(C)[nH]c2c1-c1ccccc1 [Compound C1064, 2-methoxy-6-(4-methoxybenzo[d]oxazol-2-yl)-5-methyl-3-phenylpyrazolo[1,5-a]pyrimidin-7(4H)-one] | 20 to 250 | < 20 |
| COC(C)(C)c1nnc(-c2c(C)[nH]c3c(-c4ccccc4)c(C(F)(F)F)nn3c2=O)o1 [Compound D1048, 6-(5-(2-methoxypropan-2-yl)-1,3,4-oxadiazol-2-yl)-5-methyl-3-phenyl-2-(trifluoromethyl)pyrazolo[1,5-a]pyrimidin-7(4H)-one] | 20 to 250 | > 100 |
| Cc1[nH]c2c(-c3ccccc3)c(C(F)(F)F)nn2c(=O)c1-c1nc2ccccc2n1-c1ccccc1 [Compound C1229, 5-methyl-3-phenyl-6-(1-phenyl-1H-benzo[d]imidazol-2-yl)-2-(trifluoromethyl)pyrazolo[1,5-a]pyrimidin-7(4H)-one] | 20 to 250 | < 20 |
| Cc1[nH]c2c(-c3ccccc3)c(C(F)(F)F)nn2c(=O)c1-c1nnc(C2COCCN2)o1 (stereo not drawn) [Compound D1042, 5-methyl-6-(5-(morpholin-3-yl)-1,3,4-oxadiazol-2-yl)-3-phenyl-2-(trifluoromethyl)pyrazolo[1,5-a]pyrimidin-7(4H)-one] | 20 to 250 | > 100 |
| COc1cccc(NC(=O)Cc2c(C)[nH]c3c(-c4ccccc4)c(C(F)(F)F)nn3c2=O)c1 [Compound B1011, N-(3-methoxyphenyl)-2-(5-methyl-7-oxo-3-phenyl-2-(trifluoromethyl)-4,7-dihydropyrazolo[1,5-a]pyrimidin-6-yl)acetamide] | 20 to 250 | 20 to 100 |
| Cc1[nH]c2c(C(C)C)c(C(F)(F)F)nn2c(=O)c1-c1ccccc1 [Compound C1269, 3-isopropyl-5-methyl-6-phenyl-2-(trifluoromethyl)pyrazolo[1,5-a]pyrimidin-7(4H)-one] | > 250 | 20 to 100 |
| Cc1[nH]c2c(-c3ccccc3)c(C(F)(F)F)nn2c(=O)c1-c1nc2c(o1)CCCNC2=O [Compound C1059, 2-(5-methyl-7-oxo-3-phenyl-2-(trifluoromethyl)-4,7-dihydropyrazolo[1,5-a]pyrimidin-6-yl)-5,6,7,8-tetrahydro-4H-oxazolo[4,5-c]azepin-4-one] | < 20 | > 100 |
| COc1cccc2oc(-c3c(C)[nH]c4c(-c5ccccc5)c(C#N)nn4c3=O)nc12 [Compound C1051, 6-(4-methoxybenzo[d]oxazol-2-yl)-5-methyl-7-oxo-3-phenyl-4,7-dihydropyrazolo[1,5-a]pyrimidine-2-carbonitrile] | < 20 | 20 to 100 |
| Cc1nn2c(=O)c(-c3nc4c(o3)CCCC4)c(C)[nH]c2c1-c1ccccc1 [Compound C1032, 2,5-dimethyl-3-phenyl-6-(4,5,6,7-tetrahydrobenzo[d]oxazol-2-yl)pyrazolo[1,5-a]pyrimidin-7(4H)-one] | < 20 | 20 to 100 |
| CC(=O)N1CCCCC1c1nnc(-c2c(C)[nH]c3c(-c4ccccc4)c(C(F)(F)F)nn3c2=O)o1 (stereo not drawn) [Compound D1057, 6-(5-(1-acetylpiperidin-2-yl)-1,3,4-oxadiazol-2-yl)-5-methyl-3-phenyl-2-(trifluoromethyl)pyrazolo[1,5-a]pyrimidin-7(4H)-one] | < 20 | 20 to 100 |

Second part, the compound after the results:

| IC50 [1] [µM] | IC50 [2] [µM] | SMILES |
| --- | --- | --- |
| < 20 | > 100 | Cc1[nH]c2c(-c3ccccc3)c(C(F)(F)F)nn2c(=O)c1-c1nn(C(C)C)c(=O)o1 [Compound C1023, 3-isopropyl-5-(5-methyl-7-oxo-3-phenyl-2-(trifluoromethyl)-4,7-dihydropyrazolo[1,5-a]pyrimidin-6-yl)-1,3,4-oxadiazol-2(3H)-one] |
| < 20 | 20 to 100 | COc1ccc(S(C)(=O)=O)c2oc(-c3c(C)[nH]c4c(-c5ccccc5)c(C(F)(F)F)nn4c3=O)nc12 [Compound C1125, 6-(4-methoxy-7-(methylsulfonyl)benzo[d]oxazol-2-yl)-5-methyl-3-phenyl-2-(trifluoromethyl)pyrazolo[1,5-a]pyrimidin-7(4H)-one] |
| < 20 | > 100 | COc1ccccc1S(=O)(=O)NC(=O)c1c(C)[nH]c2c(-c3ccccc3)c(C(F)(F)F)nn2c1=O [Compound A1121, N-((2-methoxyphenyl)sulfonyl)-5-methyl-7-oxo-3-phenyl-2-(trifluoromethyl)-4,7-dihydropyrazolo[1,5-a]pyrimidine-6-carboxamide] |
| < 20 | > 100 | Cc1[nH]c2c(-c3ccccc3)c(C(F)(F)F)nn2c(=O)c1-c1nnc(C2CCCCC2)o1 [Compound D1004, 6-(5-cyclohexyl-1,3,4-oxadiazol-2-yl)-5-methyl-3-phenyl-2-(trifluoromethyl)pyrazolo[1,5-a]pyrimidin-7(4H)-one] |
| < 20 | > 100 | C#Cc1nn2c(=O)c(-c3nc4c(OC)cccc4o3)c(C)[nH]c2c1-c1ccccc1 [Compound C1211, 2-ethynyl-6-(4-methoxybenzo[d]oxazol-2-yl)-5-methyl-3-phenylpyrazolo[1,5-a]pyrimidin-7(4H)-one] |
| < 20 | 20 to 100 | COc1cccc2oc(-c3c(C(=O)NC4COC4)[nH]c4c(-c5ccccc5)c(C(F)(F)F)nn4c3=O)nc12 [Compound C1185, 6-(4-methoxybenzo[d]oxazol-2-yl)-N-(oxetan-3-yl)-7-oxo-3-phenyl-2-(trifluoromethyl)-4,7-dihydropyrazolo[1,5-a]pyrimidine-5-carboxamide] |
| < 20 | > 100 | Cc1[nH]c2c(-c3ccccc3)c(C(F)(F)F)nn2c(=O)c1C(=O)Nc1ccccc1N [Compound A1006, N-(2-aminophenyl)-5-methyl-7-oxo-3-phenyl-2-(trifluoromethyl)-4,7-dihydropyrazolo[1,5-a]pyrimidine-6-carboxamide] |
| < 20 | 20 to 100 | COC1(c2nnc(-c3c(C)[nH]c4c(-c5ccccc5)c(C(F)(F)F)nn4c3=O)o2)CCCC1 [Compound D1055, 6-(5-(1-methoxycyclopentyl)-1,3,4-oxadiazol-2-yl)-5-methyl-3-phenyl-2-(trifluoromethyl)pyrazolo[1,5-a]pyrimidin-7(4H)-one] |
| < 20 | 20 to 100 | Cc1[nH]c2c(-c3ccccc3)c(C#N)nn2c(=O)c1-c1nc2ccccc2o1 [Compound C1222, 6-(benzo[d]oxazol-2-yl)-5-methyl-7-oxo-3-phenyl-4,7-dihydropyrazolo[1,5-a]pyrimidine-2-carbonitrile] |
| < 20 | > 100 | Cc1[nH]c2c(-c3ccccc3)c(C(F)(F)F)nn2c(=O)c1-c1nnc(N2CCCC2C)o1 (stereo not drawn) [Compound D1022, 5-methyl-6-(5-(2-methylpyrrolidin-1-yl)-1,3,4-oxadiazol-2-yl)-3-phenyl-2-(trifluoromethyl)pyrazolo[1,5-a]pyrimidin-7(4H)-one] |
| < 20 | > 100 | Cc1[nH]c2c(-c3ccccc3)c(C(F)(F)F)nn2c(=O)c1-c1nc2c(o1)CCCC2=O [Compound C1033, 2-(5-methyl-7-oxo-3-phenyl-2-(trifluoromethyl)-4,7-dihydropyrazolo[1,5-a]pyrimidin-6-yl)-6,7-dihydrobenzo[d]oxazol-4(5H)-one] |
